# pIC50: −log10 of the molar value. Read-outs that look alike come from different tables or passages of the source.
# Key:
# TNF release = experiment: TNF assay: TNF release from LPS-stimulated human PBMCs (TNF ELISA); format: cell-based; conditions: PBMC, read-out: IC50 (TNF assay)
# Summary of the method: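 TNF ELISA on supernatants read-out; cells were 10k human PBMCs/well given LPS at 10 ng/mL for 18 h after a 2 h compound pre-incubation across a concentration series, with IC50 derived for suppression of TNF secretion.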
# NF-κB = NF-κB assay: THP1-NF-κB-LUC cells, LPS-stimulated secreted luciferase; format: cell-based; conditions: THP1-NF-κB-LUC cells, read-out: IC50 (NF-κB assay)
# Summary of the method: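 THP1-NF-κB-LUC cells (25k/well) were pretreated with compounds for 2 h, then stimulated with LPS (10 ng/mL) for 18 h. Secreted luciferase was measured and normalized to vehicle, and IC50 was fitted from the concentration series.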
# [1] = human PBMCs, compounds 2 hours before LPS (10 ng/ml) for 18 hours, supernatant TNF ELISA
# [2] = compounds 2 hours before LPS (10 ng/mL) for 18 hours, secreted luciferase
# [3] = LPS-stimulated human PBMCs, TNF ELISA
Compound,pIC50 (TNF release; [1]),pIC50 (NF-κB; [2]),pIC50 (TNF release; [3]),pIC50 (NF-κB; LPS-stimulated)
CC1Oc2c(cc(Br)cc2S(=O)(=O)NC2CCC(C(C)(C)C)CC2)NC1=O (stereo not drawn) [BC19367],< 5.00,< 5.00,–,–
CCC1Oc2cc(S(=O)(=O)NCc3ccc(F)cc3F)c(Br)cc2NC1=O (stereo not drawn) [BC19368],< 5.00,< 5.00,–,–
CCC1Oc2cc(S(=O)(=O)Nc3ccc(C(F)(F)F)cc3Cl)c(Br)cc2NC1=O (stereo not drawn) [BC19371],< 5.00,5.00 to 6.00,–,–
CCC1Oc2cc(S(=O)(=O)NC3CCC(O)CC3)c(Br)cc2NC1=O (stereo not drawn) [BC19372],< 5.00,< 5.00,–,–
CCC1Oc2c(cc(Br)cc2S(=O)(=O)NC2CCC(O)CC2)NC1=O (stereo not drawn) [BC19378],< 5.00,< 5.00,–,–
CCC1Oc2c(cc(Br)cc2S(=O)(=O)NC2CCC(C(C)(C)C)CC2)NC1=O (stereo not drawn) [BC19379],< 5.00,< 5.00,–,–
CC(C)(C)C1CCC(NS(=O)(=O)c2cc3c(cc2Br)NC(=O)CO3)CC1 (stereo not drawn) [BC19388],< 5.00,< 5.00,–,–
O=C1COc2cc(S(=O)(=O)NC3CCC(O)CC3)c(Br)cc2N1 (stereo not drawn) [BC19389],< 5.00,< 5.00,–,–
CC1Oc2c(cc(Cl)cc2S(=O)(=O)Nc2ccc(OC(F)(F)F)cc2)NC1=O (stereo not drawn) [BC19394],< 5.00,> 7.00,–,–
CN1CCN(C(=O)c2ccc3nc(-c4ccc(F)cc4)c(S(=O)(=O)c4cccc(F)c4)nc3c2)CC1 [BC19395],–,–,> 7.00,6.00 to 7.00
OCCn1cc(-c2ccc3nc(-c4ccc(F)cc4)c(-c4ccc(F)cc4)nc3c2)nn1 [BC19396],–,–,< 5.00,> 7.00
C#CC(=O)Nc1ccc2nc(-c3ccc(F)cc3)c(-c3ccc(F)cc3)nc2c1 [BC19397],–,–,6.00 to 7.00,> 7.00
CN1CCN(C(=O)c2ccc3nc(-c4ccc(F)cc4)c(-c4ccc(Cl)cc4Cl)nc3c2)CC1 [BC19398],–,–,< 5.00,6.00 to 7.00
CN1CCN(C(=O)c2ccc3nc(-c4ccc(F)cc4)c(-c4ccc(OC(F)(F)F)cc4)nc3c2)CC1 [BC19399],–,–,< 5.00,< 5.00
CN1CCN(C(=O)c2cccc3nc(-c4ccc(F)cc4)c(-c4ccc(F)cc4)nc23)CC1 [BC19400],–,–,< 5.00,< 5.00
Cn1cc(-c2cnc3nc(-c4ccc(F)cc4)c(-c4ccc(F)cc4)nc3c2)nn1 [BC19401],–,–,< 5.00,> 7.00
CCCn1cc(-c2cnc3nc(-c4ccc(F)cc4)c(-c4ccc(F)cc4)nc3c2)nn1 [BC19402],–,–,< 5.00,> 7.00
Fc1ccc(-c2nc3cccnc3nc2-c2ccc(F)cc2)cc1 [BC19403],–,–,< 5.00,6.00 to 7.00
OCCn1ncc(-c2ccc3nc(-c4ccc(F)cc4)c(-c4ccc(F)cc4)nc3c2)n1 [BC19404],–,–,< 5.00,5.00 to 6.00

Compound,pIC50 (TNF release; [1]),pIC50 (NF-κB; [2]),pIC50 (TNF release; [3]),pIC50 (NF-κB; LPS-stimulated)
CN1CCN(C(=O)c2ccc3nc(-c4ccc(F)cc4F)c(-c4ccccc4)nc3c2)CC1 [BC19405],–,–,< 5.00,6.00 to 7.00
C#CCNC(=O)c1ccc2nc(-c3ccc(F)cc3F)c(-c3ccccc3)nc2c1 [BC19406],–,–,< 5.00,6.00 to 7.00
O=C(O)c1cnc2nc(-c3ccc(F)cc3)c(-c3ccc(F)cc3)nc2c1 [BC19407],–,–,< 5.00,6.00 to 7.00
CN1CCN(C(=O)c2cnc3nc(-c4ccc(F)cc4)c(-c4ccc(F)cc4)nc3c2)CC1 [BC19408],–,–,< 5.00,6.00 to 7.00
O=c1c(S(=O)(=O)c2cccc(F)c2)c(O)[nH]c2ncccc12 [BC19409],< 5.00,< 5.00,–,–
COc1cccc(-c2nc(S(=O)(=O)c3ccc(Cl)cc3)c(S(C)(=O)=O)[nH]2)c1 [BC19410],–,–,< 5.00,6.00 to 7.00
CC(C)S(=O)(=O)c1oc(-c2cccc(F)c2)nc1S(=O)(=O)c1ccc(Cl)cc1 [BC19411],–,–,> 7.00,> 7.00
O=S(=O)(c1ccc(Cl)cc1)c1nc(-c2cccc(F)c2)oc1S(=O)(=O)C1CCCCC1 [BC19412],–,–,6.00 to 7.00,6.00 to 7.00
C[S+]([O-])c1sc(-c2ccc(F)cc2)nc1S(=O)(=O)c1ccc(Cl)cc1 (stereo not drawn) [BC19413],–,–,5.00 to 6.00,< 5.00
CCC[S+]([O-])c1sc(-c2ccc(F)cc2)nc1S(=O)(=O)c1ccc(Cl)cc1 (stereo not drawn) [BC19414],–,–,< 5.00,< 5.00
CC(C)[S+]([O-])c1sc(-c2ccc(F)cc2)nc1S(=O)(=O)c1ccc(Cl)cc1 (stereo not drawn) [BC19415],–,–,5.00 to 6.00,< 5.00
O=S(=O)(c1ccc(Cl)cc1)c1nc(-c2ccc(F)cc2)sc1[S+]([O-])CC1CC1 (stereo not drawn) [BC19416],–,–,< 5.00,< 5.00
CCC[S+]([O-])c1oc(-c2ccc(Cl)cc2)nc1S(=O)(=O)c1ccc(Cl)cc1 (stereo not drawn) [BC19417],–,–,5.00 to 6.00,6.00 to 7.00
CCCS(=O)(=O)c1oc(-c2ccc(Cl)cc2)nc1S(=O)(=O)c1ccc(Cl)cc1 [BC19418],–,–,5.00 to 6.00,5.00 to 6.00
CC(C)CS(=O)(=O)c1oc(-c2ccc(Cl)cc2)nc1S(=O)(=O)c1ccc(Cl)cc1 [BC19419],–,–,6.00 to 7.00,5.00 to 6.00
COCC[S+]([O-])c1[nH]c(-c2ccccc2)nc1S(=O)(=O)c1ccc(Cl)cc1 (stereo not drawn) [BC19420],–,–,< 5.00,< 5.00
Cc1ccc(NS(=O)(=O)c2cc(S(C)(=O)=O)cc3c2OCC(=O)N3)cc1F [BC19423],< 5.00,> 7.00,–,–
COc1ccc(NS(=O)(=O)c2cc(S(C)(=O)=O)cc3c2OCC(=O)N3)cc1Cl [BC19429],< 5.00,< 5.00,–,–

# Other lines, results leading:
pIC50 (TNF release; [1]),pIC50 (NF-κB; [2]),pIC50 (TNF release; [3]),pIC50 (NF-κB; LPS-stimulated),Compound
< 5.00,< 5.00,–,–,CCC1Oc2cc(S(=O)(=O)NCc3ccc(OC(F)(F)F)cc3)c(Br)cc2NC1=O (stereo not drawn) [BC19369]
< 5.00,< 5.00,–,–,CCC1Oc2cc(S(=O)(=O)NCc3ccc(C(F)(F)F)cc3)c(Br)cc2NC1=O (stereo not drawn) [BC19370]
< 5.00,< 5.00,–,–,CCC1Oc2cc(S(=O)(=O)NCCc3ccc(OC(F)(F)F)cc3)c(Br)cc2NC1=O (stereo not drawn) [BC19373]
5.00 to 6.00,> 7.00,–,–,CCC1Oc2c(cc(Br)cc2S(=O)(=O)NCc2ccc(F)cc2F)NC1=O (stereo not drawn) [BC19374]
< 5.00,> 7.00,–,–,CCC1Oc2c(cc(Br)cc2S(=O)(=O)NCc2ccc(OC(F)(F)F)cc2)NC1=O (stereo not drawn) [BC19375]
< 5.00,5.00 to 6.00,–,–,CCC1Oc2c(cc(Br)cc2S(=O)(=O)NCCc2ccc(OC(F)(F)F)cc2)NC1=O (stereo not drawn) [BC19376]
< 5.00,> 7.00,–,–,CCC1Oc2c(cc(Br)cc2S(=O)(=O)NCc2ccc(C(F)(F)F)cc2)NC1=O (stereo not drawn) [BC19377]
< 5.00,< 5.00,–,–,CC(C)(C)C1CCC(NS(=O)(=O)c2cc(Br)cc3c2OCC(=O)N3)CC1 (stereo not drawn) [BC19380]
< 5.00,< 5.00,–,–,O=C1COc2c(cc(Br)cc2S(=O)(=O)NC2CCC(O)CC2)N1 (stereo not drawn) [BC19381]
< 5.00,< 5.00,–,–,O=C1COc2c(cc(Br)cc2S(=O)(=O)NCc2ccc(C(F)(F)F)cc2)N1 [BC19382]
< 5.00,< 5.00,–,–,O=C1COc2c(cc(Br)cc2S(=O)(=O)NCCc2ccc(OC(F)(F)F)cc2)N1 [BC19383]
< 5.00,> 7.00,–,–,O=C1COc2c(cc(Br)cc2S(=O)(=O)Nc2ccc(C(F)(F)F)cc2Cl)N1 [BC19384]
< 5.00,< 5.00,–,–,O=C1COc2c(cc(Br)cc2S(=O)(=O)NCc2ccc(OC(F)(F)F)cc2)N1 [BC19385]
< 5.00,< 5.00,–,–,O=C1COc2c(cc(Br)cc2S(=O)(=O)NCc2ccc(F)cc2F)N1 [BC19386]
< 5.00,< 5.00,–,–,O=C1COc2cc(S(=O)(=O)NCCc3ccc(OC(F)(F)F)cc3)c(Br)cc2N1 [BC19387]
< 5.00,5.00 to 6.00,–,–,O=C1COc2cc(S(=O)(=O)Nc3ccc(C(F)(F)F)cc3Cl)c(Br)cc2N1 [BC19390]
< 5.00,< 5.00,–,–,O=C1COc2cc(S(=O)(=O)NCc3ccc(C(F)(F)F)cc3)c(Br)cc2N1 [BC19391]
< 5.00,< 5.00,–,–,O=C1COc2cc(S(=O)(=O)NCc3ccc(OC(F)(F)F)cc3)c(Br)cc2N1 [BC19392]
< 5.00,< 5.00,–,–,O=C1COc2cc(S(=O)(=O)NCc3ccc(F)cc3F)c(Br)cc2N1 [BC19393]
< 5.00,> 7.00,–,–,CCS(=O)(=O)c1cc2c(c(S(=O)(=O)Nc3ccc(F)c(F)c3)c1)OCC(=O)N2 [BC19421]
< 5.00,> 7.00,–,–,CS(=O)(=O)c1cc2c(c(S(=O)(=O)Nc3ccc(OC(F)(F)F)cc3)c1)OCC(=O)N2 [BC19422]
< 5.00,> 7.00,–,–,CC(C)c1ccc(NS(=O)(=O)c2cc(S(C)(=O)=O)cc3c2OCC(=O)N3)cc1 [BC19424]
< 5.00,> 7.00,–,–,CS(=O)(=O)c1cc2c(c(S(=O)(=O)Nc3ccc(F)cc3F)c1)OCC(=O)N2 [BC19425]
< 5.00,> 7.00,–,–,CS(=O)(=O)c1cc2c(c(S(=O)(=O)Nc3cccc(F)c3)c1)OCC(=O)N2 [BC19426]
< 5.00,> 7.00,–,–,CS(=O)(=O)c1cc2c(c(S(=O)(=O)Nc3cccc(Cl)c3)c1)OCC(=O)N2 [BC19427]
< 5.00,6.00 to 7.00,–,–,CS(=O)(=O)c1cc2c(c(S(=O)(=O)Nc3ccc(F)cc3Cl)c1)OCC(=O)N2 [BC19428]
< 5.00,> 7.00,–,–,CS(=O)(=O)c1cc2c(c(S(=O)(=O)Nc3ccc(F)cc3)c1)OCC(=O)N2 [BC19430]
< 5.00,> 7.00,–,–,CS(=O)(=O)c1cc2c(c(S(=O)(=O)Nc3ccc(C#N)cc3)c1)OCC(=O)N2 [BC19431]
< 5.00,6.00 to 7.00,–,–,Cc1ccc(NS(=O)(=O)c2c(C)c(Cl)cc3c2OCC(=O)N3)cc1 [BC19432]

# Reference: patent publication US12606528B2, “Methods and materials for inhibiting NF-kB activity” (University of Pittsburgh - Of the Commonwealth System of …, priority 2019, dated 2026)
